Results from paper PMC8944662 (Proceedings of the National Academy of Sciences of the …, 2022).

Molecular target: NfnL (isolated large subunit of NADH-dependent ferredoxin-NADP+ oxidoreductase I) (Pyrococcus furiosus, UniProt Q8U195)
Assay: intrinsic Trp/Tyr fluorescence quenching titration, Morrison fit
Type: binding

NfnL (isolated large subunit of NADH-dependent ferredoxin-NADP+ oxidoreductase I), sequence (Q8U195 whole entry): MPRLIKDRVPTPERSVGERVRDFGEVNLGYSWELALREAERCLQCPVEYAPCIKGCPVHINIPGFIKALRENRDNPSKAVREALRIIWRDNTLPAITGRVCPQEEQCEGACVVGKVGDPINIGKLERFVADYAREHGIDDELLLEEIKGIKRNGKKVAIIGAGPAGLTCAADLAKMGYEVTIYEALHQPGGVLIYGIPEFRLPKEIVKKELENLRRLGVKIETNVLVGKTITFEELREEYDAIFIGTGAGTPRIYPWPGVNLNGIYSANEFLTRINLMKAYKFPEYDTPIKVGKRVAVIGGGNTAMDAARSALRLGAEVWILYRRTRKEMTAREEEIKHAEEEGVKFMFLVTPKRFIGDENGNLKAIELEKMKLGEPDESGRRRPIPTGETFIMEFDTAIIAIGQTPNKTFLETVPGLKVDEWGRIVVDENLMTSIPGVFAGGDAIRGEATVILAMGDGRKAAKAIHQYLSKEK

Row | Kd [µM] | SMILES
1 | 3 ± 0.4 | NC(=O)C1=CN([C@@H]2O[C@H](COP(=O)(O)OP(=O)(O)OC[C@H]3O[C@@H](n4cnc5c(N)ncnc54)[C@H](OP(=O)(O)O)[C@@H]3O)[C@@H](O)[C@H]2O)C=CC1 [NADPH]
2 | 3 ± 0.4 | NC(=O)c1ccc[n+]([C@@H]2O[C@H](COP(=O)(O)OP(=O)(O)OC[C@H]3O[C@@H](n4cnc5c(N)ncnc54)[C@H](OP(=O)(O)O)[C@@H]3O)[C@@H](O)[C@H]2O)c1 [NADP^+]
